Measurements published in the NIST ThermoML archive (doi:10.1016/j.jct.2015.12.005).
Values joined by “and” are separate entries in the source; they are usually repeats but may differ in a detail not shown here. Equal entries are not always repeated. ± gives the expanded uncertainty stated by the source.

Conditions: for mass density: Vibrating tube method; for vapor or sublimation pressure: Twin ebulliometer; for Triple point temperature: Adiabatic calorimetry

## c1ccc2c(c1)CCC2 [indane]
5 K, Crystal 2, Vacuum adiabatic calorimetry
  molar entropy: 0.09977 ± 0.017 J/K/mol
10 K, Crystal 2, Vacuum adiabatic calorimetry
  molar entropy: 0.873 ± 0.025 J/K/mol
20 K, Crystal 2, Vacuum adiabatic calorimetry
  molar entropy: 5.878 ± 0.067 J/K/mol
30 K, Crystal 2, Vacuum adiabatic calorimetry
  molar entropy: 13.6 ± 0.12 J/K/mol
40 K, Crystal 2, Vacuum adiabatic calorimetry
  molar entropy: 22.12 ± 0.1 J/K/mol
50 K, Crystal 2, Vacuum adiabatic calorimetry
  molar entropy: 30.71 ± 0.12 J/K/mol
60 K, Crystal 2, Vacuum adiabatic calorimetry
  molar entropy: 39.24 ± 0.14 J/K/mol
62 K, Crystal 2, Vacuum adiabatic calorimetry
  molar entropy: 40.96 ± 0.14 J/K/mol
64 K, Crystal 2, Vacuum adiabatic calorimetry
  molar entropy: 42.68 ± 0.15 J/K/mol
66 K, Crystal 2, Vacuum adiabatic calorimetry
  molar entropy: 44.42 ± 0.15 J/K/mol
68 K, Crystal 2, Vacuum adiabatic calorimetry
  molar entropy: 46.19 ± 0.16 J/K/mol
70 K, Crystal 2, Vacuum adiabatic calorimetry
  molar entropy: 48 ± 0.17 J/K/mol
72 K, Crystal 2, Vacuum adiabatic calorimetry
  molar entropy: 49.85 ± 0.17 J/K/mol
73.83 K, Crystal 1, Vacuum adiabatic calorimetry
  molar entropy: 53.65 ± 0.17 J/K/mol
73.83 K, Crystal 2, Vacuum adiabatic calorimetry
  molar entropy: 51.59 ± 0.17 J/K/mol
74 K, Crystal 1, Vacuum adiabatic calorimetry
  molar entropy: 53.79 ± 0.17 J/K/mol
76 K, Crystal 1, Vacuum adiabatic calorimetry
  molar entropy: 55.33 ± 0.18 J/K/mol
78 K, Crystal 1, Vacuum adiabatic calorimetry
  molar entropy: 56.85 ± 0.18 J/K/mol
80 K, Crystal 1, Vacuum adiabatic calorimetry
  molar entropy: 58.36 ± 0.19 J/K/mol
90 K, Crystal 1, Vacuum adiabatic calorimetry
  molar entropy: 65.61 ± 0.31 J/K/mol
100 K, Crystal 1, Vacuum adiabatic calorimetry
  molar entropy: 72.48 ± 0.32 J/K/mol
120 K, Crystal 1, Vacuum adiabatic calorimetry
  molar entropy: 85.36 ± 0.33 J/K/mol
140 K, Crystal 1, Vacuum adiabatic calorimetry
  molar entropy: 97.4 ± 0.35 J/K/mol
160 K, Crystal 1, Vacuum adiabatic calorimetry
  molar entropy: 108.88 ± 0.37 J/K/mol
180 K, Crystal 1, Vacuum adiabatic calorimetry
  molar entropy: 120 ± 0.38 J/K/mol
200 K, Crystal 1, Vacuum adiabatic calorimetry
  molar entropy: 130.94 ± 0.4 J/K/mol
220 K, Crystal 1, Vacuum adiabatic calorimetry
  molar entropy: 141.81 ± 0.42 J/K/mol
221.79 K, Crystal 1, Vacuum adiabatic calorimetry
  molar entropy: 142.78 ± 0.42 J/K/mol
221.79 K, Liquid, Vacuum adiabatic calorimetry
  molar entropy: 181.35 ± 0.49 J/K/mol
230 K, Liquid, Vacuum adiabatic calorimetry
  molar entropy: 187.35 ± 0.5 J/K/mol
240 K, Liquid, Vacuum adiabatic calorimetry
  molar entropy: 194.49 ± 0.51 J/K/mol
250 K, Liquid, Vacuum adiabatic calorimetry
  molar entropy: 201.46 ± 0.52 J/K/mol
260 K, Liquid, Vacuum adiabatic calorimetry
  molar entropy: 208.28 ± 0.53 J/K/mol
270 K, Liquid, Vacuum adiabatic calorimetry
  molar entropy: 214.98 ± 0.55 J/K/mol
280 K, Liquid, Vacuum adiabatic calorimetry
  molar entropy: 221.57 ± 0.56 J/K/mol
290 K, Liquid, Vacuum adiabatic calorimetry
  molar entropy: 228.06 ± 0.57 J/K/mol
298.15 K, Liquid, Vacuum adiabatic calorimetry
  molar entropy: 233.26 ± 0.57 J/K/mol
300 K, Liquid, Vacuum adiabatic calorimetry
  molar entropy: 234.44 ± 0.58 J/K/mol
310 K, Liquid, Vacuum adiabatic calorimetry
  molar entropy: 240.74 ± 0.59 J/K/mol
320 K, Liquid, Vacuum adiabatic calorimetry
  molar entropy: 246.96 ± 0.6 J/K/mol
323.15 K, Liquid
  mass density: 937.2 ± 1.9 kg/m3
330 K, Liquid, Vacuum adiabatic calorimetry
  molar entropy: 253.13 ± 0.62 J/K/mol
333.38 K, Liquid, Vacuum adiabatic calorimetry
  molar entropy: 255.19 ± 0.62 J/K/mol
338.12 K, Liquid
  vapor or sublimation pressure: 2 ± 0.0078 kPa
340 K, Liquid, Vacuum adiabatic calorimetry
  molar entropy: 259.22 ± 0.62 J/K/mol
344.12 K, Liquid
  vapor or sublimation pressure: 2.666 ± 0.0079 kPa
348.15 K, Liquid
  mass density: 915.6 ± 1.8 kg/m3
350 K, Liquid, Vacuum adiabatic calorimetry
  molar entropy: 265.26 ± 0.63 J/K/mol
353.03 K, Liquid
  vapor or sublimation pressure: 4 ± 0.0079 kPa
359.69 K, Liquid
  vapor or sublimation pressure: 5.333 ± 0.008 kPa
360 K, Liquid, Vacuum adiabatic calorimetry
  molar entropy: 271.24 ± 0.65 J/K/mol
369.61 K, Liquid
  vapor or sublimation pressure: 7.999 ± 0.0082 kPa
370 K, Liquid, Vacuum adiabatic calorimetry
  molar entropy: 277.19 ± 0.66 J/K/mol
373.15 K, Liquid
  mass density: 893.7 ± 1.8 kg/m3
377.06 K, Liquid
  vapor or sublimation pressure: 10.67 ± 0.008 kPa
380 K, Liquid, Vacuum adiabatic calorimetry
  molar entropy: 283.07 ± 0.67 J/K/mol
383.1 K, Liquid
  vapor or sublimation pressure: 13.33 ± 0.009 kPa
389.37 K, Liquid
  vapor or sublimation pressure: 16.66 ± 0.009 kPa
390 K, Liquid, Vacuum adiabatic calorimetry
  molar entropy: 288.92 ± 0.67 J/K/mol
394.58 K, Liquid
  vapor or sublimation pressure: 19.93 ± 0.009 kPa
398.15 K, Liquid
  mass density: 871.2 ± 1.7 kg/m3
400 K, Liquid, Vacuum adiabatic calorimetry
  molar entropy: 294.73 ± 0.69 J/K/mol
401.44 K, Liquid
  vapor or sublimation pressure: 25.02 ± 0.01 kPa and 25.02 ± 0.011 kPa
408.36 K, Liquid
  vapor or sublimation pressure: 31.17 ± 0.011 kPa
410 K, Liquid, Vacuum adiabatic calorimetry
  molar entropy: 300.49 ± 0.7 J/K/mol
415.33 K, Liquid
  vapor or sublimation pressure: 38.56 ± 0.013 kPa
420 K, Liquid, Vacuum adiabatic calorimetry
  molar entropy: 306.23 ± 0.71 J/K/mol
422.35 K, Liquid
  vapor or sublimation pressure: 47.37 ± 0.014 kPa
423.15 K, Liquid
  mass density: 848.5 ± 1.7 kg/m3
429.42 K, Liquid
  vapor or sublimation pressure: 57.81 ± 0.016 kPa
430 K, Liquid, Vacuum adiabatic calorimetry
  molar entropy: 311.92 ± 0.72 J/K/mol
436.54 K, Liquid
  vapor or sublimation pressure: 70.11 ± 0.019 kPa
440 K, Liquid, Vacuum adiabatic calorimetry
  molar entropy: 317.58 ± 0.72 J/K/mol
443.71 K, Liquid
  vapor or sublimation pressure: 84.53 ± 0.021 kPa
448.15 K, Liquid
  mass density: 824.8 ± 1.7 kg/m3
450 K, Liquid, Small sample (50 mg) DSC
  molar entropy: 323.22 ± 7.5 J/K/mol
450.93 K, Liquid
  vapor or sublimation pressure: 101.32 ± 0.03 kPa
458.2 K, Liquid
  vapor or sublimation pressure: 120.78 ± 0.03 kPa
460 K, Liquid, Small sample (50 mg) DSC
  molar entropy: 328.83 ± 7.6 J/K/mol
465.53 K, Liquid
  vapor or sublimation pressure: 143.23 ± 0.03 kPa
470 K, Liquid, Small sample (50 mg) DSC
  molar entropy: 334.43 ± 7.8 J/K/mol
472.9 K, Liquid
  vapor or sublimation pressure: 169 ± 0.03 kPa
473.15 K, Liquid
  mass density: 799.8 ± 1.6 kg/m3
480 K, Liquid, Small sample (50 mg) DSC
  molar entropy: 340.01 ± 7.9 J/K/mol
480.33 K, Liquid
  vapor or sublimation pressure: 198.46 ± 0.04 kPa
487.8 K, Liquid
  vapor or sublimation pressure: 231.99 ± 0.05 kPa
490 K, Liquid, Small sample (50 mg) DSC
  molar entropy: 345.57 ± 8 J/K/mol
495.33 K, Liquid
  vapor or sublimation pressure: 269.98 ± 0.05 kPa
498.15 K, Liquid
  mass density: 774 ± 1.6 kg/m3
500 K, Liquid, Small sample (50 mg) DSC
  molar entropy: 351.1 ± 8.2 J/K/mol
510 K, Liquid, Small sample (50 mg) DSC
  molar entropy: 356.62 ± 8.3 J/K/mol
520 K, Liquid, Small sample (50 mg) DSC
  molar entropy: 362.11 ± 8.4 J/K/mol
523.15 K, Liquid
  mass density: 745.8 ± 1.5 kg/m3
530 K, Liquid, Small sample (50 mg) DSC
  molar entropy: 367.58 ± 8.5 J/K/mol
540 K, Liquid, Small sample (50 mg) DSC
  molar entropy: 373.04 ± 8.7 J/K/mol
550 K, Liquid, Small sample (50 mg) DSC
  molar entropy: 378.48 ± 8.8 J/K/mol
560 K, Liquid, Small sample (50 mg) DSC
  molar entropy: 383.9 ± 8.9 J/K/mol
570 K, Liquid, Small sample (50 mg) DSC
  molar entropy: 389.31 ± 9 J/K/mol
580 K, Liquid, Small sample (50 mg) DSC
  molar entropy: 394.7 ± 9.2 J/K/mol
590 K, Liquid, Small sample (50 mg) DSC
  molar entropy: 400.08 ± 9.3 J/K/mol
600 K, Liquid, Small sample (50 mg) DSC
  molar entropy: 405.43 ± 9.4 J/K/mol
Crystal 1
  Triple point temperature: 221.79 ± 0.039 K
Crystal 2
  Triple point temperature: 73.83 ± 0.04 K
